{
  "source": "patent US8609043B2",
  "about": "“Use of a container of an inorganic additive containing plastic material” (M & P Patent Aktiengesellschaft, priority 2001, dated 2013)",
  "assay": "Stability of formulations containing testosterone in containers of different material (HPLC)",
  "type": "physicochemical",
  "experimental": "As an example for the aforementioned considerations in table 1 are shown the results of tests investigating the stability of formulations containing the steroid hormone testosterone in containers of different material.\nThe term “remaining drug after storage” is the amount of testosterone remaining in the formulation after storage for 22 hours. The remaining drug was measured by HPLC technique.",
  "data": [
    {"molecule": "C[C@]12CC[C@H]3[C@@H](CCC4=CC(=O)CC[C@@]43C)[C@@H]1CC[C@@H]2O", "note": "[testosterone]", "values": [
      {"measurement": "Remaining drug after storage (%)", "setting": "Methanolic formulation, primary packaging material Glass, storage for 22 hours", "result": 100, "unit": "%"},
      {"measurement": "Remaining drug after storage (%)", "setting": "Oil-based formulation, primary packaging material Glass, storage for 22 hours", "result": "≈80%"},
      {"measurement": "Remaining drug after storage (%)", "setting": "Oil-based formulation, primary packaging material LDPE + TiO2, storage for 22 hours", "result": 100, "unit": "%"},
      {"measurement": "Remaining drug after storage (%)", "setting": "Oil-based formulation, primary packaging material LDPE, storage for 22 hours", "result": "≈30%"},
      {"measurement": "Remaining drug after storage (%)", "setting": "Oil-based formulation, primary packaging material PP, storage for 22 hours", "result": "≈50%"}
    ]}
  ]
}
